One experiment has as its target T1, MAGL (Mus musculus, UniProt O35678).
T1 construct: Proteomes (mouse brain membrane fraction or cell lysates); from tissue; host or cells: mouse brain membrane fraction (or cell lysates)
T1 sequence (O35678 1-303): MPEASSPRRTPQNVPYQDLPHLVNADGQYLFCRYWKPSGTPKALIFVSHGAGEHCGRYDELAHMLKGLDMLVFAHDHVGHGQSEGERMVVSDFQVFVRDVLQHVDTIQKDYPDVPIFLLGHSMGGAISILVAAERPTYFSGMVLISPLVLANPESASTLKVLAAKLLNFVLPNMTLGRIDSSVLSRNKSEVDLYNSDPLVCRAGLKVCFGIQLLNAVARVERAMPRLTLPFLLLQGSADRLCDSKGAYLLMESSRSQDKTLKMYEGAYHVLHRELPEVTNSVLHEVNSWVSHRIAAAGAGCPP
As to the kind of experiment: In vitro competitive activity-based protein profiling (mouse), MAGL gel band. Type of experiment: biochemical. The following applies: for inhibition at 1 µM: read-out: MAGL % inh. 1 μM; for IC50: mouse. The method in brief: (§1)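 Competitive ABPP: inhibitors at varying concentrations were given 30 min at 37 °C with mouse brain membranes or cell lysates (1.0 mg/mL total protein) before 30 min labelling by FP-Rh or HT-01 (stock 50 μM in DMSO). Residual hydrolase activity read as in-gel fluorescence of MAGL and FAAH bands.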

Another experiment has as its target T2, FAAH (Mus musculus, UniProt O08914).
T2 construct: Proteomes (mouse brain membrane fraction or cell lysates); from tissue; host or cells: mouse brain membrane fraction (or cell lysates)
T2 sequence (O08914 1-579): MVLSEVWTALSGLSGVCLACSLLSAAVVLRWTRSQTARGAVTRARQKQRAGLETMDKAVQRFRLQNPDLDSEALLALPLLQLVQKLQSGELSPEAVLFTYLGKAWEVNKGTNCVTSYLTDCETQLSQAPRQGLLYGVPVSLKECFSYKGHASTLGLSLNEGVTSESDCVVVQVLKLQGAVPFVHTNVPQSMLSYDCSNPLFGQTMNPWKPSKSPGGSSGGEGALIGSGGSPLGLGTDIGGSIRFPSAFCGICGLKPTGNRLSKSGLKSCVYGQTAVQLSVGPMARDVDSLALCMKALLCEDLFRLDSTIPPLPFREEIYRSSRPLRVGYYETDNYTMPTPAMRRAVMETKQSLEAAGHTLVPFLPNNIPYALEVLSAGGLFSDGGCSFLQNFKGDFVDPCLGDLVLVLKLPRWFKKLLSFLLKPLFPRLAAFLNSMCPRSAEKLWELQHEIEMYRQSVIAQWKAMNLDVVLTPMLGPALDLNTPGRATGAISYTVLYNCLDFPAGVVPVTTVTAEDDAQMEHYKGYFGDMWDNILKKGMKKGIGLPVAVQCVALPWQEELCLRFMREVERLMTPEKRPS
As to the kind of experiment: In vitro competitive activity-based protein profiling (mouse), FAAH gel band. It is filed as biochemical. Conditions: for inhibition at 1 µM: read-out: FAAH % inh. 1 μM; for IC50: mouse. The method in brief: as §1

These results are taken from patent US10519134B2, “Pyrazole compounds and methods of making and using same” (Lundbeck La Jolla Research Center, Inc., priority 2015, dated 2019).

By IC50 is commonly meant the concentration needed to halve the response being measured. A higher IC50 goes with lower potency.

Regarding `CS(=O)(=O)Nc1ccn(C(=O)N2CCN(Cc3ccc(Cl)c(-c4nnn[nH]4)c3)CC2)n1` [Example 214, N-(1-(4-(4-chloro-3-(1H-tetrazol-5-yl)benzyl)piperazine-1-carbonyl)-1H-pyrazol-3-yl) methanesulfonamide], the inhibition at 1 µM at MAGL and at FAAH was 0 to 25% each time.
For the compound `CN1CCC(Oc2cc(CN3CCN(C(=O)n4ccc(NS(C)(=O)=O)n4)CC3)ccc2Cl)CC1` [Example 220, N-(1-(4-(4-chloro-3-((1-methylpiperidin-4-yl)oxy)benzyl)piperazine-1-carbonyl)-1H-pyrazol-3-yl) methanesulfonamide], the inhibition at 1 µM was in the range of 25 to 50% at MAGL and 0 to 25% at FAAH.
For the compound `CC(=O)Nc1ccn(C(=O)N2CCN(Cc3ccc(C(F)(F)F)c(-c4nnn[nH]4)c3)CC2)n1` [Example 222, N-(1-(4-(3-(1H-tetrazol-5-yl)-4-(trifluoromethyl)benzyl)piperazine-1-carbonyl)-1H-pyrazol-3-yl)acetamide], at MAGL, the half-inhibitory concentration (IC50) is not above 100 nM and the inhibition at 1 µM is not below 75%. Further, at FAAH, the half-inhibitory concentration (IC50) lay within 1000 to 10000 nM and the inhibition at 1 µM lay in the range of 0 to 25%.
The corresponding values for `Cc1c(CN2CCCC23CCN(C(=O)n2ccc(NS(C)(=O)=O)n2)CC3)cccc1N1CCCC1` [Example 224, N-(1-(1-(2-methyl-3-(pyrrolidin-1-yl)benzyl)-1,8-diazaspiro[4.5]decane-8-carbonyl)-1H-pyrazol-3-yl) methanesulfonamide] are 1000 to 10000 nM, not below 75%, 1000 to 10000 nM and 0 to 25%.
Regarding `CN1CCN(c2c(Cl)cccc2CN2CCN(C(=O)n3ccc(NS(C)(=O)=O)n3)CC2)CC1` [Example 225, N-(1-(4-(3-chloro-2-(4-methylpiperazin-1-yl)benzyl)piperazine-1-carbonyl)-1H-pyrazol-3-yl) methanesulfonamide], the inhibition at 1 µM at MAGL and at FAAH was 0 to 25% each time.
With `Cc1c(CN2CCCC23CCN(C(=O)n2ccc(NS(C)(=O)=O)n2)CC3)cccc1N1CCOCC1` [Example 226, N-(1-(1-(2-methyl-3-morpholinobenzyl)-1,8-diazaspiro[4.5]decane-8-carbonyl)-1H-pyrazol-3-yl) methanesulfonamide], the inhibition at 1 µM on MAGL and at FAAH was 0 to 25% each time.
With `CCN1CCN(c2cc(C(F)(F)F)ccc2CN2CCCC23CCN(C(=O)n2ccc(NS(C)(=O)=O)n2)CC3)CC1` [Example 238, N-(1-(1-(2-(4-ethylpiperazin-1-yl)-4-(trifluoromethyl)benzyl)-1,8-diazaspiro[4.5]decane-8-carbonyl)-1H-pyrazol-3-yl) methanesulfonamide], the inhibition at 1 µM on MAGL and on FAAH was 0 to 25% each time.
For `CS(=O)(=O)Nc1ccn(C(=O)N2CCC3(CCCN3Cc3ccc(C(F)(F)F)cc3N3CCN(C4CC4)CC3)CC2)n1` [Example 239, N-(1-(1-(2-(4-cyclopropylpiperazin-1-yl)-4-(trifluoromethyl)benzyl)-1,8-diazaspiro[4.5]decane-8-carbonyl)-1H-pyrazol-3-yl) methanesulfonamide], the inhibition at 1 µM at MAGL and on FAAH was 0 to 25% in each case.
As for `CS(=O)(=O)Nc1ccn(C(=O)N2CCN(Cc3ccc(C(F)(F)F)cc3N3CCN(CC(=O)O)CC3)CC2)n1` [Example 241, 2-(4-(2-((4-(3-(methylsulfonamido)-1H-pyrazole-1-carbonyl)piperazin-1-yl)methyl)-5-(trifluoromethyl)phenyl)piperazin-1-yl)acetic acid], the inhibition at 1 µM at MAGL lay in the range of 50 to 75%; on FAAH it was 0 to 25%.
As for `CS(=O)(=O)Nc1ccn(C(=O)N2CCN(Cc3cc(N4CCC(C(=O)O)CC4)cc(C(F)(F)F)c3)CC2)n1` [Example 242, 1-(3-((4-(3-(methylsulfonamido)-1H-pyrazole-1-carbonyl)piperazin-1-yl)methyl)-5-(trifluoromethyl)phenyl)piperidine-4-carboxylic acid], the inhibition at 1 µM on MAGL and on FAAH was 0 to 25% each time.
With `CS(=O)(=O)Nc1ccn(C(=O)N2CCC3(CCCN3Cc3ccc(C(F)(F)F)cc3N3CCC(C(=O)O)CC3)CC2)n1` [Example 243, 1-(2-((8-(3-(methylsulfonamido)-1H-pyrazole-1-carbonyl)-1,8-diazaspiro[4.5]decan-1-yl)methyl)-5-(trifluoromethyl)phenyl)piperidine-4-carboxylic acid], the inhibition at 1 µM at MAGL and at FAAH was 0 to 25% in each case.
Regarding `CS(=O)(=O)Nc1ccn(C(=O)N2CCN(Cc3cc(N4CCC(C(=O)O)C4)cc(C(F)(F)F)c3)CC2)n1` (stereo not shown) [Example 244, 1-(3-((4-(3-(methylsulfonamido)-1H-pyrazole-1-carbonyl)piperazin-1-yl)methyl)-5-(trifluoromethyl)phenyl)pyrrolidine-3-carboxylic acid], the inhibition at 1 µM on MAGL and at FAAH was 0 to 25% each time.
In the case of `CS(=O)(=O)Nc1ccn(C(=O)N2CCC3(CCCN3Cc3ccc(C(F)(F)F)cc3N3CCC(C(=O)O)C3)CC2)n1` (stereo not shown) [Example 245, 1-(2-((8-(3-(methylsulfonamido)-1H-pyrazole-1-carbonyl)-1,8-diazaspiro[4.5]decan-1-yl)methyl)-5-(trifluoromethyl)phenyl) pyrrolidine-3-carboxylic acid], the inhibition at 1 µM on MAGL and at FAAH was 0 to 25% throughout.
Take `CS(=O)(=O)Nc1ccn(C(=O)N2CCC3(CCCN3Cc3cc(N4CCC(C(=O)O)CC4)cc(C(F)(F)F)c3)CC2)n1` [Example 246, 1-(3-((8-(3-(methylsulfonamido)-1H-pyrazole-1-carbonyl)-1,8-diazaspiro[4.5]decan-1-yl)methyl)-5-(trifluoromethyl)phenyl) piperidine-4-carboxylic acid]: the inhibition at 1 µM at MAGL and on FAAH was 0 to 25% throughout.
For `CS(=O)(=O)Nc1ccn(C(=O)N2CCC3(CCCN3Cc3cc(N4CCC(C(=O)O)C4)cc(C(F)(F)F)c3)CC2)n1` (stereo not shown) [Example 247, 1-(3-((8-(3-(methylsulfonamido)-1H-pyrazole-1-carbonyl)-1,8-diazaspiro[4.5]decan-1-yl)methyl)-5-(trifluoromethyl)phenyl)pyrrolidine-3-carboxylic acid], the inhibition at 1 µM on MAGL and at FAAH was 0 to 25% in each case.
Consider `CS(=O)(=O)Nc1ccn(C(=O)N2CCN(Cc3ccc(Cl)c(N4CCC(C(N)=O)CC4)c3)CC2)n1` [Example 249, 1-(2-chloro-5-((4-(3-(methylsulfonamido)-1H-pyrazole-1-carbonyl)piperazin-1-yl)methyl)phenyl) piperidine-4-carboxamide], for which the inhibition at 1 µM on MAGL and on FAAH was 0 to 25% throughout.
As for `CC(=O)N1CCN(c2cc(CN3CCN(C(=O)n4ccc(NS(C)(=O)=O)n4)CC3)cc(C(F)(F)F)c2)CC1` [Example 251, N-(1-(4-(3-(4-acetylpiperazin-1-yl)-5-(trifluoromethyl)benzyl)piperazine-1-carbonyl)-1H-pyrazol-3-yl) methanesulfonamide], the inhibition at 1 µM fell in the range of 25 to 50% on MAGL and 0 to 25% on FAAH.
In the case of `CS(=O)(=O)Nc1ccn(C(=O)N2CCN(Cc3ccc(C(F)(F)F)cc3N3CCC(O)CC3)CC2)n1` [Example 252, N-(1-(4-(2-(4-hydroxypiperidin-1-yl)-4-(trifluoromethyl)benzyl)piperazine-1-carbonyl)-1H-pyrazol-3-yl) methanesulfonamide], the 50% inhibitory concentration (IC50) was not above 100 nM at MAGL and 1000 to 10000 nM on FAAH. The figures for the inhibition at 1 µM on MAGL and on FAAH were not below 75% and 0 to 25%, respectively.
In the case of `CC(=O)Nc1ccn(C(=O)N2CCC3(CCCN3Cc3ccc4[nH]cnc4c3)CC2)n1` [Example 253, N-(1-(1-((1H-benzo[d]imidazol-5-yl)methyl)-1,8-diazaspiro[4.5]decane-8-carbonyl)-1H-pyrazol-3-yl)acetamide], the inhibition at 1 µM on MAGL lay in the range of 50 to 75%; on FAAH, 0 to 25%.
The corresponding values for `CS(=O)(=O)Nc1ccn(C(=O)N2CCN(Cc3cc(N4CCN(S(C)(=O)=O)CC4)cc(C(F)(F)F)c3)CC2)n1` [Example 254, N-(1-(4-(3-(4-(methylsulfonyl)piperazin-1-yl)-5-(trifluoromethyl)benzyl)piperazine-1-carbonyl)-1H-pyrazol-3-yl) methanesulfonamide] are 25 to 50% and 0 to 25%.
